Data: US9085555B2, “Complement pathway modulators and uses thereof” (priority 2011, dated 2015)

Target: Factor D (Homo sapiens (Human), UniProt P00746)
Assay: biochemical
Type: biochemical
Details: read-out: IC50

Chain of Factor D (P00746 26-253): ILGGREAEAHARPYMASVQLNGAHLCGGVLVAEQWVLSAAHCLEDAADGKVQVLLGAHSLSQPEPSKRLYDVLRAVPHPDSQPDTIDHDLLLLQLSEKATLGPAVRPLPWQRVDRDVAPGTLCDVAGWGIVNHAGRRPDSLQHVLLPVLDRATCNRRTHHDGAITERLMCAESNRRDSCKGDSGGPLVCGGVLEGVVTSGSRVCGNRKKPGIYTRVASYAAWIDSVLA

| SMILES | IC50 [nM] |
| --- | --- |
| Cc1cc2c(C(N)=O)nn(CC(=O)N3[C@@H]4C[C@@H]4C[C@H]3C(=O)Nc3cccc(Br)n3)c2cn1 [Example 734, 1-{2-[(1R,3S,5R)-3-(6-Bromo-pyridin-2-ylcarbamoyl)-2-aza-bicyclo[3.1.0]hex-2-yl]-2-oxo-ethyl}-5-methyl-1H-pyrazolo [3,4-c]pyridine-3-carboxylic acid amide] | 4 |
| NC(=O)n1cc(NC(=O)N2C[C@H](F)C[C@H]2C(=O)Nc2ncccc2F)c2ccccc21 [Example 327, (2S,4R)-4-Fluoro-pyrrolidine-1,2-dicarboxylic acid 1-[(1-carbamoyl-1H-indol-3-yl)-amide] 2-[(3-fluoro-pyridin-2-yl)-amide]] | 1700 |
| NC(=O)n1cc(NC(=O)N2C[C@H](F)C[C@H]2C(=O)Nc2ccncc2F)c2ccccc21 [Example 323, (2S,4R)-4-Fluoro-pyrrolidine-1,2-dicarboxylic acid 1-[(1-carbamoyl-1H-indol-3-yl)-amide] 2-[(3-fluoro-pyridin-4-yl)-amide]] | 902 |
| CC(=O)c1cn(CC(=O)N2C[C@H](F)C[C@H]2C(=O)NCc2cccc(Cl)c2F)c2cnccc12 [Example 552, (2S,4R)-1-[2-(3-Acetyl-pyrrolo[2,3-c]pyridin-1-yl)-acetyl]-4-fluoro-pyrrolidine-2-carboxylic acid 3-chloro-2-fluoro-benzylamide] | 40 |
| NC(=O)n1cc(CC(=O)N2[C@@H]3C[C@@H]3C[C@H]2C(=O)NCc2cccc(Cl)c2F)c2ccccc21 [Example 446, 3-{2-[(1R,3S,5R)-3-(3-Chloro-2-fluoro-benzylcarbamoyl)-2-aza-bicyclo[3.1.0]hex-2-yl]-2-oxo-ethyl}-indole-1-carboxylic acid amide] | 16 |
| NC(=O)n1cc(NC(=O)N2[C@@H]3C[C@@H]3C[C@H]2C(=O)NCc2cccc(Cl)c2F)c2ccc(CC(=O)O)cc21 [Example 378, (1-Carbamoyl-3-{[(1R,3S,5R)-3-(3-chloro-2-fluoro-benzylcarbamoyl)-2-aza-bicyclo[3.1.0]hexane-2-carbonyl]-amino}-1H-indol-6-yl)-acetic acid] | 24 |
| COc1cc2c(C(C)=O)nn(CC(=O)N3[C@@H]4C[C@@H]4C[C@H]3C(=O)NCc3cccc(Cl)c3F)c2cc1OC [Example 647, (1R,3S,5R)-2-[2-(3-Acetyl-5,6-dimethoxy-indazol-1-yl)-acetyl]-2-aza-bicyclo [3.1.0]hexane-3-carboxylic acid 3-chloro-2-fluoro-benzylamide] | 16 |
| NC(=O)c1nn(CC(=O)N2[C@@H]3C[C@@H]3C[C@H]2C(=O)NCc2cccc(Cl)c2F)c2cnccc12 [Example 703, 1-(2-((1R,3S,5R)-3-((3-Chloro-2-fluorobenzyl)carbamoyl)-2-azabicyclo[3.1.0]hexan-2-yl)-2-oxoethyl)-1H-pyrazolo[3,4-c]pyridine-3-carboxamide] | 10 |
| CC(=O)N[C@@H]1CN(C(=O)Nc2cn(C(N)=O)c3ccccc23)[C@H](C(=O)NCc2cccc(Cl)c2F)[C@H]1F [Example 211, (2R,3S,4R)-4-Acetylamino-3-fluoro-pyrrolidine-1,2-dicarboxylic acid 1-[(1-carbamoyl-1H-indol-3-yl)-amide] 2-(3-chloro-2-fluoro-benzylamide)] | 1320 |
| NC(=O)c1nn(CC(=O)N2[C@@H]3C[C@@H]3C[C@H]2C(=O)NCc2cccc(Cl)c2F)c2ncccc12 [Example 654, 1-{2-[(1R,3S,5R)-3-(3-Chloro-2-fluoro-benzylcarbamoyl)-2-aza-bicyclo[3.1.0]hex-2-yl]-2-oxo-ethyl}-1H-pyrazolo[3,4-b]pyridine-3-carboxylic acid amide] | 18 |
| CNC(=O)n1cc(NC(=O)N2[C@@H]3C[C@@H]3C[C@H]2C(=O)NCc2cccc(Cl)c2F)c2ccccc21 [Example 130, (1R,3S,5R)-2-Azabicyclo[3.1.0]hexane-2,3-dicarboxylic acid 3-(3-chloro-2-fluoro-benzylamide) 2-[(1-methylcarbamoyl-1H-indol-3-yl)-amide]] | 54 |
| NC(=O)n1cc(NC(=O)N2C[C@H](F)C[C@H]2C(=O)NCc2cccc(Cl)c2)c2ccccc21 [Example 8, (2S,4R)-4-Fluoro-pyrrolidine-1,2-dicarboxylic acid 1-[(1-carbamoyl-1H-indol-3-yl)-amide] 2-(3-chloro-benzylamide)] | 9 |
| CC(=O)c1cn(CC(=O)N2[C@@H]3C[C@@H]3C[C@H]2C(=O)NCc2cccc(Cl)c2F)c2cc(OCc3ccccc3)ccc12 [Example 536, (1R,3S,5R)-2-[2-(3-Acetyl-6-benzyloxy-indol-1-yl)-acetyl]-2-aza-bicyclo[3.1.0]hexane-3-carboxylic acid 3-chloro-2-fluoro-benzylamide] | 121 |
| NC(=O)n1cc(NC(=O)N2C[C@H](F)C[C@H]2CNS(=O)(=O)c2ccc(Cl)s2)c2ccccc21 [Example 111, 3-({(2S,4R)-2-[(5-Chloro-thiophene-2-sulfonylamino)-methyl]-4-fluoro-pyrrolidine-1-carbonyl}-amino)-indole-1-carboxylic acid amide] | 60 |
| COC(=O)[C@H]1C[C@@H](C(=O)Nc2cccc(OC(F)(F)F)c2F)N(C(=O)Nc2cn(C(N)=O)c3ccccc23)C1 [Example 435, (3S,5S)-1-(1-Carbamoyl-1H-indol-3-ylcarbamoyl)-5-(2-fluoro-3-trifluoromethoxy-phenylcarbamoyl)-pyrrolidine-3-carboxylic acid methyl ester] | 250 |
| NC(=O)n1cc(CC(=O)N2[C@@H]3C[C@@H]3C[C@H]2C(=O)Nc2cccc(OC(F)(F)F)c2)c2cc(OCCO)ccc21 [Example 455, 5-(2-Hydroxy-ethoxy)-3-{2-oxo-2-[(1R,3S,5R)-3-(3-trifluoromethoxy-phenylcarbamoyl)-2-aza-bicyclo[3.1.0]hex-2-yl]-ethyl}-indole-1-carboxylic acid amide] | 767 |
| CS(=O)(=O)c1cccc(NC(=O)[C@@H]2CCCN2C(=O)Nc2cn(C(N)=O)c3ccccc23)c1 [Example 325, (S)-Pyrrolidine-1,2-dicarboxylic acid 1-[(1-carbamoyl-1H-indol-3-yl)-amide] 2-[(3-methanesulfonyl-phenyl)-amide]] | 2250 |
| CC[C@H](C)[C@H](NC(=O)[C@@H]1C[C@@H](F)CN1C(=O)Nc1cn(C(N)=O)c2ccccc12)C(=O)O [Example 25, (2S,3S)-2-{[(2S,4R)-1-(1-Carbamoyl-1H-indol-3-ylcarbamoyl)-4-fluoro-pyrrolidine-2-carbonyl]-amino}-3-methyl-pentanoic acid] | 6750 |
| Cc1cccc(CNC(=O)[C@@H]2C[C@H](N)CN2C(=O)Nc2cn(C(N)=O)c3ccccc23)c1 [Example 30, (2S,4S)-4-Amino-pyrrolidine-1,2-dicarboxylic acid 1-[(1-carbamoyl-1H-indol-3-yl)-amide] 2-(3-methyl-benzylamide)] | 2700 |
| COC(=O)c1ccc2c(C(C)=O)cn(CC(=O)N3C[C@H](F)C[C@H]3C(=O)NCc3cccc(Cl)c3F)c2c1 [Example 542, 3-Acetyl-1-{2-[(2S,4R)-2-(3-chloro-2-fluoro-benzylcarbamoyl)-4-fluoro-pyrrolidin-1-yl]-2-oxo-ethyl}-1H-indole-6-carboxylic acid methyl ester] | 19 |
| NC(=O)n1cc(NC(=O)N2C[C@H](F)C[C@H]2C(=O)N[C@@H](c2cccc(Cl)c2)C(F)(F)F)c2ccccc21 [Example 296, (2S,4R)-4-Fluoro-pyrrolidine-1,2-dicarboxylic acid 1-[(1-carbamoyl-1H-indol-3-yl)-amide] 2-{[(S)-1-(3-chloro-phenyl)-2,2,2-trifluoro-ethyl]-amide}] | 218 |
| C[C@@]1(F)C[C@@H](C(=O)N[C@H](CO)c2cccc(Cl)c2F)N(C(=O)Nc2cn(C(N)=O)c3ccccc23)C1 [Example 239, (2S,4R)-4-Fluoro-4-methyl-pyrrolidine-1,2-dicarboxylic acid 1-[(1-carbamoyl-1H-indol-3-yl)-amide] 2-{[(S)-1-(3-chloro-2-fluoro-phenyl)-2-hydroxy-ethyl]-amide}] | 52 |
| CC(=O)c1cn(CC(=O)N2[C@@H]3C[C@@H]3C[C@H]2C(=O)NCc2cccc(Cl)c2F)c2cccnc12 [Example 553, (1R,3S,5R)-2-[2-(3-Acetyl-pyrrolo[3,2-b]pyridin-1-yl)-acetyl]-2-aza-bicyclo[3.1.0] hexane-3-carboxylic acid 3-chloro-2-fluoro-benzylamide] | 5300 |
| CC(=O)c1cn(CC(=O)N2[C@@H]3C[C@@H]3C[C@H]2C(=O)NCc2cccc(Cl)c2F)c2nc(C(=O)O)ccc12 [Example 704, 3-Acetyl-1-{2-[(1R,3S,5R)-3-(3-chloro-2-fluoro-benzylcarbamoyl)-2-aza-bicyclo[3.1.0]hex-2-yl]-2-oxo-ethyl}-1H-pyrrolo[2,3-b]pyridine-6-carboxylic acid] | 23 |
| NC(=O)n1cc(NC(=O)N2CCC[C@H]2C(=O)Nc2cccc(OC(F)(F)F)c2)c2ccc(OCc3ccccc3)cc21 [Example 313, (S)-Pyrrolidine-1,2-dicarboxylic acid 1-[(6-benzyloxy-1-carbamoyl-1H-indol-3-yl)-amide]2-[(3-trifluoromethoxy-phenyl)-amide]] | 1300 |
| CC(=O)c1cn(CC(=O)N2[C@@H]3C[C@@H]3C[C@H]2C(=O)Nc2cccc(Br)n2)c2ccncc12 [Example 751, (1R,3S,5R)-2-[2-(3-Acetyl-pyrrolo[3,2-c]pyridin-1-yl)-acetyl]-2-aza-bicyclo[3.1.0] hexane-3-carboxylic acid (6-bromo-pyridin-2-yl)-amide] | 81 |
| NC(=O)n1cc(NC(=O)N2C[C@@H](N)C[C@H]2C(=O)N[C@@H]2C[C@H]2c2ccccc2)c2ccccc21 [Example 83] | 2250 |
| NC(=O)n1cc(NC(=O)N2C[C@@H](N)C[C@H]2C(=O)NCc2ccccc2O)c2ccccc21 [Example 48, (2S,4S)-4-Amino-pyrrolidine-1,2-dicarboxylic acid 1-[(1-carbamoyl-1H-indol-3-yl)-amide] 2-(2-hydroxy-benzylamide)] | 7500 |
| NC(=O)n1cc(NC(=O)N2C[C@@H](N)C[C@H]2C(=O)NCCc2ccccc2F)c2ccccc21 [Example 88, (2S,4S)-4-Amino-pyrrolidine-1,2-dicarboxylic acid 1-[(1-carbamoyl-1Hindol-3-yl)-amide] 2-{[2-(2-fluoro-phenyl)-ethyl]-amide}] | 6800 |
